What was measured:
D(4) dopamine receptor = biological target: T1, D(4) dopamine receptor (Homo sapiens, UniProt P21917); test: In vitro binding affinity at human dopamine D4 receptor expressed in CHO cells by [3H]spiperone displacement.; assay type: cell-based
T1 sequence (P21917 whole entry): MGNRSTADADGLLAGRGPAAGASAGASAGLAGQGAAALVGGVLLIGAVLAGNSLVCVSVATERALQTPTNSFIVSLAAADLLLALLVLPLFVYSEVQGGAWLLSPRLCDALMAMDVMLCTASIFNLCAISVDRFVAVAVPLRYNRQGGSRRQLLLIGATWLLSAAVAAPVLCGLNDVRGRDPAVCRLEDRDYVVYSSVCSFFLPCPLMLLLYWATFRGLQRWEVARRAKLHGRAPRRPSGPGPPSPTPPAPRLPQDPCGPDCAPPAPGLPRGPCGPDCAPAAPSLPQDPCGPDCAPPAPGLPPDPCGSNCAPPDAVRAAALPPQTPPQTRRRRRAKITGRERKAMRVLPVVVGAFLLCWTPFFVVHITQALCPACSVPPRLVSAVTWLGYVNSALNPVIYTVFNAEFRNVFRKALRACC

D(3) dopamine receptor = D(3) dopamine receptor (Homo sapiens, UniProt P35462); test: Displacement of [3H]spiperone from human Dopamine receptor D3 expressed in CHO cells; assay type: cell-based
D(2) dopamine receptor = D(2) dopamine receptor (Homo sapiens, UniProt P14416); test: Displacement of [3H]spiperone from human Dopamine receptor D2 expressed in CHO cells; assay type: cell-based
[1] = biological target: T2, 5-hydroxytryptamine receptor 1A (Mus musculus, UniProt Q64264); test: In vivo binding affinity was evaluated against 5-hydroxytryptamine 1A receptor; assay type: organism-based
T2 sequence (Q64264 whole entry): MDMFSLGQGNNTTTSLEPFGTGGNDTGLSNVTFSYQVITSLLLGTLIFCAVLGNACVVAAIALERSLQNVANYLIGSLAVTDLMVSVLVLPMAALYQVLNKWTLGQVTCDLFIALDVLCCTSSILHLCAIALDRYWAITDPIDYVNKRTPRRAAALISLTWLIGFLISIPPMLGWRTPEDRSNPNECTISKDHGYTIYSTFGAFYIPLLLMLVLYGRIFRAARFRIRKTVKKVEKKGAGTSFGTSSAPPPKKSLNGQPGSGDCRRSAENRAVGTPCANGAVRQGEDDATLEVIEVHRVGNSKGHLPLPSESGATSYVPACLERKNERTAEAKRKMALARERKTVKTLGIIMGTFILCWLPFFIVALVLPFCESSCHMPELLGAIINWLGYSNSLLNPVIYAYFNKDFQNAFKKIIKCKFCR

[2] = biological target: 5-hydroxytryptamine receptor 2A (Bos taurus, UniProt Q75Z89); test: In vivo binding affinity was evaluated against 5-hydroxytryptamine 2 receptor; assay type: organism-based
Rattus norvegicus = test: Reversal of amphetamine (at 0.5 mg/kg given intra peritoneal) stimulated locomotor activity at 3 mg/kg in rat.; assay type: functional

D(2) dopamine receptor, sequence (P14416 whole entry): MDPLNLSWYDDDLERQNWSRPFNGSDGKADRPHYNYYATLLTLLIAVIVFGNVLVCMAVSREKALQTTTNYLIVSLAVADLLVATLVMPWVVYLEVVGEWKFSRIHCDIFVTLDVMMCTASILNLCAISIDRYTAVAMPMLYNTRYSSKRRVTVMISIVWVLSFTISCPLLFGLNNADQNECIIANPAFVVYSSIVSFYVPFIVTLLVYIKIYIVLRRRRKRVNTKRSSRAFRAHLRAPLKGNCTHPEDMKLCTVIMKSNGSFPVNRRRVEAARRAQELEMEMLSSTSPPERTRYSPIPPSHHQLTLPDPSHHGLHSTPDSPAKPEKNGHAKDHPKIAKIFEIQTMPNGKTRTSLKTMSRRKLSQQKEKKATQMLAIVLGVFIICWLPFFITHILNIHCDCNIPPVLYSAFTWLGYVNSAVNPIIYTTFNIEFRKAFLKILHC
D(3) dopamine receptor, sequence (P35462 whole entry): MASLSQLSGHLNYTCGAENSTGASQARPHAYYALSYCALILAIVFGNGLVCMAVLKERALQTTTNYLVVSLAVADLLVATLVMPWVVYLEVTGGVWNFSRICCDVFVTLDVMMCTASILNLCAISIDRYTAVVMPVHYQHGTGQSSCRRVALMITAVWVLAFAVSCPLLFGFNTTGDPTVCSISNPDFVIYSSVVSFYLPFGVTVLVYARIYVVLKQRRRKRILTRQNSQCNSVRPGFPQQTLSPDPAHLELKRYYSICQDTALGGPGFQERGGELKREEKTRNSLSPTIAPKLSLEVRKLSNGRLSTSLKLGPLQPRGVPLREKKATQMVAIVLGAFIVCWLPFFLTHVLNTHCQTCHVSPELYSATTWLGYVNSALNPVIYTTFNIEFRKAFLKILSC
5-hydroxytryptamine receptor 2A, sequence (Q75Z89 whole entry): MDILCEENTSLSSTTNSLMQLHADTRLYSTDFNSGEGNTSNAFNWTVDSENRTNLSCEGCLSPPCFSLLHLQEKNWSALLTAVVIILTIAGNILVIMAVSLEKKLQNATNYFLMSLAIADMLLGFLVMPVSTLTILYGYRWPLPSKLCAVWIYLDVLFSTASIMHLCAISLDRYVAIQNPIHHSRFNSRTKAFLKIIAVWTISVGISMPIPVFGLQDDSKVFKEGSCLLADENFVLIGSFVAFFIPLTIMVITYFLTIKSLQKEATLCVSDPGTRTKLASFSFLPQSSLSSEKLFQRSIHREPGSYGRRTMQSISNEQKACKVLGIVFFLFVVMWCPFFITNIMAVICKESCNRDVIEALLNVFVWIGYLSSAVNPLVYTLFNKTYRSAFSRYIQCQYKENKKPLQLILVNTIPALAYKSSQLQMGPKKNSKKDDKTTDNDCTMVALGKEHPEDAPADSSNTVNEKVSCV

O=C(CCN1CCN(c2ccc(CO)c(Cl)c2)CC1)c1ccc(Cl)cc1
Ki (D(4) dopamine receptor): 60 nM

Cc1ccc(N2CCN(CCC3NC(=O)c4ccccc43)CC2)cc1 (configuration not stated)
Ki (D(3) dopamine receptor): > 3000 nM
Ki (D(2) dopamine receptor): > 5000 nM

O=C1NC(CCN2CCN(c3ccc(Cl)cc3)CC2)c2ccccc21 (configuration not stated)
Ki (D(3) dopamine receptor): > 3000 nM
Ki (D(2) dopamine receptor): > 5000 nM

O=C1NC(CCN2CCN(c3ccccc3)CC2)c2ccccc21 (configuration not stated)
Ki (D(3) dopamine receptor): 2680 nM

Cc1ccc(N2CCN(CC[C@H]3NC(=O)c4ccccc43)CC2)cc1C
Ki [1]: 525 nM
Ki [2]: 36.4 nM
Activity (Rattus norvegicus): 8%

COc1ccc(N2CCN(CCC3c4ccccc4C(=O)N3C)CC2)cc1 (configuration not stated)
Ki (D(3) dopamine receptor): > 3000 nM
Ki (D(4) dopamine receptor): 333 nM
Ki (D(2) dopamine receptor): > 5000 nM

Cc1ccc(N2CCN(CCC3c4ccccc4C(=O)N3C)CC2)cc1C (configuration not stated)
Ki (D(3) dopamine receptor): > 3000 nM
Ki (D(4) dopamine receptor): 35.1 nM
Ki (D(2) dopamine receptor): > 5000 nM

OCc1ccc(N2CCN(CCC(O)c3ccc(Cl)cc3)CC2)cc1Cl (configuration not stated)
Ki (D(4) dopamine receptor): 11 nM

CN1C(=O)c2ccccc2C1CCN1CCN(c2ccc(Cl)cc2)CC1 (configuration not stated)
Ki (D(3) dopamine receptor): > 3000 nM
Ki (D(4) dopamine receptor): 78.6 nM
Ki (D(2) dopamine receptor): > 5000 nM

O=C1NC(CCN2CCN(c3ccc4ccccc4c3)CC2)c2ccccc21 (configuration not stated)
Ki (D(3) dopamine receptor): > 3000 nM
Ki (D(4) dopamine receptor): 10 nM
Ki (D(2) dopamine receptor): > 5000 nM

Cc1ccc(N2CCN(CC[C@@H]3NC(=O)c4ccccc43)CC2)cc1C
Ki [1]: 991 nM
Ki [2]: 14.6 nM
Activity (Rattus norvegicus): 70%

Cc1ccc(C2CCN(CCC3NC(=O)c4ccccc43)CC2)cc1C (configuration not stated)
Ki (D(3) dopamine receptor): > 3000 nM

Cc1ccnc(N2CCN(CCC3NC(=O)c4ccccc43)CC2)c1 (configuration not stated)
Ki (D(3) dopamine receptor): > 3000 nM
Ki (D(4) dopamine receptor): 22.6 nM
Ki (D(2) dopamine receptor): > 5000 nM

COc1ccc(N2CCN(CCC3NC(=O)c4ccccc43)CC2)cc1 (configuration not stated)
Ki (D(3) dopamine receptor): > 3000 nM
Ki (D(4) dopamine receptor): 37.3 nM
Ki (D(2) dopamine receptor): > 5000 nM

OCc1ccc(N2CCN(CC[C@H](O)c3ccc(Cl)cc3)CC2)cc1Cl
Ki (D(4) dopamine receptor): 8.6 nM

OCc1ccc(N2CCN(CC[C@@H](O)c3ccc(Cl)cc3)CC2)cc1Cl
Ki (D(4) dopamine receptor): 81.4 nM

Cc1ccc(N2CCN(CCC3NC(=O)c4ccccc43)CC2)cc1C (configuration not stated)
Ki (D(3) dopamine receptor): 2680 nM

Cc1nc(N2CCN(CCC3NC(=O)c4ccccc43)CC2)sc1C (configuration not stated)
Ki (D(3) dopamine receptor): > 3000 nM
Ki (D(2) dopamine receptor): > 5000 nM

Source: ChEMBL document CHEMBL1131363, “Isoindolinone enantiomers having affinity for the dopamine D4 receptor” (Bioorg Med Chem Lett, 1998)
